Test results from the supplement of paper PMC10307832.

What was measured:
Assay in all cases: relative viability (nuclei count vs DMSO), 5 days (fraction); higher = more cells survive
CUDC-101 + Palbociclib = compound: C#Cc1cccc(Nc2ncnc3cc(OC)c(OCCCCCCC(=O)NO)cc23)c1 [CUDC-101] + CC(=O)c1c(C)c2cnc(Nc3ccc(N4CCNCC4)cn3)nc2n(C2CCCC2)c1=O [Palbociclib] (partner 0.5 µM)
In short: (§1)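 Lung cancer cell lines were seeded in 1536-well plates and dosed by pin tool the next day, with either a single drug or a fixed anchor-drug dose combined with five library-drug doses (not always all listed) spaced in √10 steps. Five days later, one step fixed the cells and stained their nuclei (final 0.05% Triton X-100, 1% formaldehyde, 1 ug/ml Hoechst), and nuclei were counted on 4× images. Relative viability is the nuclei count in treated wells divided by the count in vehicle wells, and each value is the median of duplicate plates.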

Vandetanib + Foretinib = compound: COc1cc2/c(=N/c3ccc(Br)cc3F)nc[nH]c2cc1OCC1CCN(C)CC1 [Vandetanib] + COc1cc2c(Oc3ccc(NC(=O)C4(C(=O)Nc5ccc(F)cc5)CC4)cc3F)ccnc2cc1OCCCN1CCOCC1 [Foretinib] (partner 0.25 µM)
In short: as §1

Vandetanib + Pictilisib = compound: COc1cc2/c(=N/c3ccc(Br)cc3F)nc[nH]c2cc1OCC1CCN(C)CC1 [Vandetanib] + CS(=O)(=O)N1CCN(Cc2cc3nc(-c4cccc5[nH]ncc45)nc(N4CCOCC4)c3s2)CC1 [Pictilisib] (partner 1 µM)
In short: as §1

Vandetanib + Tozasertib = compound: COc1cc2/c(=N/c3ccc(Br)cc3F)nc[nH]c2cc1OCC1CCN(C)CC1 [Vandetanib] + Cc1cc(Nc2cc(N3CCN(C)CC3)nc(Sc3ccc(NC(=O)C4CC4)cc3)n2)n[nH]1 [Tozasertib] (partner 0.1 µM)
In short: as §1

Row | Cell Line | relative viability (CUDC-101 + Palbociclib; first compound 0.01 µM) | relative viability (CUDC-101 + Palbociclib; first compound 0.03162 µM) | relative viability (CUDC-101 + Palbociclib; first compound 0.1 µM) | relative viability (CUDC-101 + Palbociclib; first compound 0.3162 µM) | relative viability (CUDC-101 + Palbociclib; first compound 1 µM) | relative viability (Vandetanib + Foretinib; first compound 0.02 µM) | relative viability (Vandetanib + Foretinib; first compound 0.06325 µM) | relative viability (Vandetanib + Foretinib; first compound 0.2 µM) | relative viability (Vandetanib + Foretinib; first compound 0.6325 µM) | relative viability (Vandetanib + Foretinib; first compound 2 µM) | relative viability (Vandetanib + Pictilisib; first compound 0.02 µM) | relative viability (Vandetanib + Pictilisib; first compound 0.06325 µM) | relative viability (Vandetanib + Pictilisib; first compound 0.2 µM) | relative viability (Vandetanib + Pictilisib; first compound 0.6325 µM) | relative viability (Vandetanib + Pictilisib; first compound 2 µM) | relative viability (Vandetanib + Tozasertib; first compound 0.02 µM) | relative viability (Vandetanib + Tozasertib; first compound 0.06325 µM) | relative viability (Vandetanib + Tozasertib; first compound 0.2 µM) | relative viability (Vandetanib + Tozasertib; first compound 0.6325 µM) | relative viability (Vandetanib + Tozasertib; first compound 2 µM)
1 | NCI-H2087 | 0.284 | 0.21 | 0.238 | 0.264 | 0.168 | 1.15 | 0.886 | 0.181 | 1.38 | 1.11 | 1 | 0.694 | 0.922 | 0.935 | 0.964 | 0.252 | 0.266 | 0.0945 | 0.278 | 0.262
2 | NCI-H2126 | 0.355 | 0.346 | 0.337 | 0.364 | 0.352 | 1.17 | 1.16 | 1.11 | 1.14 | 1.11 | 0.461 | 0.46 | 0.468 | 0.418 | 0.481 | 0.814 | 0.8 | 0.795 | 0.745 | 0.657
3 | NCI-H2170 | 0.419 | 0.402 | 0.385 | 0.37 | 0.361 | 1.04 | 0.57 | 1.06 | 0.978 | 1.03 | 0.328 | 0.288 | 0.267 | 0.28 | 0.31 | 0.75 | 0.733 | 0.796 | 0.685 | 0.764
